# Laboratory results reported in US20130059783A1, “COMPOSITIONS AND METHODS FOR EXPANDING BFU-E CELLS” (priority 2010, published 2013).
# Key:
# [1] = tested on: fetal liver erythroid progenitor (FLEP) cells; assay: Colony forming assays of magnetically depleted fetal liver cells (Table S1); format: cell-based, mouse
# Method: The negatively enriched cell populations were subjected to colony forming assays under two different conditions. […] CFU-E colonies were counted 3 days later. […] These cells were cultured 8-9 days before late BFU-E, early BFU-E, CFU-G/M/Mk (granulocyte, monocyte, megakaryocyte), and CFU-GEMM (granulocyte, erythrocyte, monocyte, megakaryocyte) colonies were scored. BFU-Es consisting of a cluster of only 5-20 CFU-Es were scored as late, while larger BFU-Es were scored as early. 2,7-fluorenediamine was used to stain hemoglobin-containing colonies in the plates. […] Standard deviation between experiments is shown in parenthesis.
# The first step towards enrichment of BFU-E and CFU-E cells was to remove more mature blood cells from single cell suspensions of fetal livers by magnetic column depletion. We stained fetal liver cells with a panel of biotin labeled anti-lineage (Lin) antibodies (Ter119, B220, Mac-1, CD3 and Gr-1), followed by anti-biotin tetramer and magnetic colloid labeling. All positive cells were depleted using magnetic columns.
# (§1) Colonies were scored after 3 days. […] The number of hemoglobinized early BFU-E and late BFU-E colonies was determined after 8-9 days following staining with 2,7-Diaminofluorene (Sigma Chemical, St. Louis, Mo.).
# BFU-E cells = assay: Colony forming assays of sorted BFU-E fractions (Table S2); format: cell-based, mouse
# Source text: Separation of BFU-E and CFU-E cells by expression of CD71, CD24a or both CD71 and CD24a. C-kit positive BFU-E and CFU-E cells were sorted from FLEP cells based on expression of CD71, CD24a or both CD71 and CD24a. In all experiments the BFU-E fraction was the subset of c-kit^positive FLEP cells with the 10% lowest expression of CD71 and/or CD24a, while the CFU-E fraction was the subset with 20% highest expression of CD71 and/or CD24a. Sorted BFU-E and CFU-E populations were subjected to colony forming assays under two different conditions. […] The number of CFU-E colonies (±standard deviation) is shown. The sorted “BFU-E” populations mostly formed small CFU-E clusters rather than single CFU-E colonies in these assays. These CFU-E clusters are formed by precursors to CFU-Es and were scored separately as multi-CFU-Es. The number of “multi-CFU-Es” is not shown since these cells likely represent the same cells as those forming small BFU-E colonies.
# The potential of the sorted cells to form large BFU-E, small BFU-E, CFU-G/M/Mk, and CFU-GEMM colonies (±standard deviation) was determined by a second assay in methyl cellulose containing 10U Epo, 20 nM IL-3, 20 nM IL-6 and 50 nM SCF per mL, and was scored at day 8-9. […] To determine the effect of DMOG, colony assays of sorted BFU-E (CD71 and CD24a^10% low) cells were also performed in the presence of 333 μM DMOG. In agreement with the finding that DMOG enhances BFU-E self-renewal BFU-E colonies were larger with a more immature appearance in the presence of DMOG and Dex. Therefore, in the presence of DMOG and Dex most BFU-E colonies were scored as “large BFU-Es.”
# No GEMM colonies were formed (Table S2).
# as §1
# [2] = Lin− fetal liver cells, EPO, SCF, IL-3, IL-6, 100 nM Dex
# [3] = Lin−, CD32/16− cells, 100 nM Dex
# [4] = Lin−, CD32/16−, Sca-1− cells, 100 nM Dex
# [5] = Lin−, CD32/16−, Sca-1−, CD41− cells, 100 nM Dex
# [6] = Lin−, CD32/16−, Sca-1−, CD41−, CD34− (FLEP cells), 100 nM Dex
# [7] = CD24a 10% low cells, 100 nM Dex
# [8] = CD71/CD24a 10% low cells, 100 nM Dex and/or 333 μM DMOG
# [9] = purified CD71 10% low cells, with Dex
structure (smiles),measurement,setting,value
"C[C@@H]1C[C@H]2[C@@H]3CCC4=CC(=O)C=C[C@]4(C)[C@@]3(F)[C@@H](O)C[C@]2(C)[C@@]1(O)C(=O)CO [Dex, dexamethasone]","GEMM colonies, scored day 8-9",[1]; [2],7 (±4) colonies per 1000 plated cells
same,"early BFU-E colonies, scored day 8-9",[1]; [2],39 (±12) colonies per 1000 plated cells
same,"late BFU-E colonies, scored day 8-9",[1]; [2],53 (±13) colonies per 1000 plated cells
same,"CFU-E colonies, scored day 3","[1]; Lin− fetal liver cells, methylcellulose 10U EPO/mL, 100 nM Dex",472 (±79) colonies per 1000 plated cells
same,"CFU-G/M/Meg colonies, scored day 8-9",[1]; [3],17 (±10) colonies per 1000 plated cells
same,"GEMM colonies, scored day 8-9",[1]; [3],5 (±2) colonies per 1000 plated cells
same,"early BFU-E colonies, scored day 8-9",[1]; [3],37 (±12) colonies per 1000 plated cells
same,"late BFU-E colonies, scored day 8-9",[1]; [3],69 (±14) colonies per 1000 plated cells
same,"CFU-E colonies, scored day 3","[1]; Lin−, CD32/16− fetal liver cells, 10U EPO/mL, 100 nM Dex",560 (±245) colonies per 1000 plated cells
same,"CFU-G/M/Meg colonies, scored day 8-9",[1]; [4],7 (±3) colonies per 1000 plated cells
same,"GEMM colonies, scored day 8-9",[1]; [4],0.2 (±0.3) colonies per 1000 plated cells
same,"early BFU-E colonies, scored day 8-9",[1]; [4],24 (±5) colonies per 1000 plated cells
same,"late BFU-E colonies, scored day 8-9",[1]; [4],110 (±10) colonies per 1000 plated cells
same,"CFU-G/M/Meg colonies, scored day 8-9",[1]; [5],9 (±12) colonies per 1000 plated cells
same,"GEMM colonies, scored day 8-9",[1]; [5],0.3 (±0.4) colonies per 1000 plated cells
same,"early BFU-E colonies, scored day 8-9",[1]; [5],10 (±4) colonies per 1000 plated cells
same,"late BFU-E colonies, scored day 8-9",[1]; [5],142 (±77) colonies per 1000 plated cells
same,"CFU-G/M/Meg colonies, scored day 8-9",[1]; [6],4 (±6) colonies per 1000 plated cells
same,"GEMM colonies, scored day 8-9",[1]; [6],0.3 (±0.5) colonies per 1000 plated cells
same,"early BFU-E colonies, scored day 8-9",[1]; [6],23 (±17) colonies per 1000 plated cells
same,"late BFU-E colonies, scored day 8-9",[1]; [6],141 (±84) colonies per 1000 plated cells
same,CFU-E colonies,BFU-E cells; [7],96 (±23) colonies per 1000 plated cells
same,CFU-G/M/Meg colonies,BFU-E cells; [7],19 (±6) colonies per 1000 plated cells
same,GEMM colonies,BFU-E cells; [7],0.8 (±2) colonies per 1000 plated cells
same,large BFU-E colonies,BFU-E cells; [7],178 (±28) colonies per 1000 plated cells
same,small BFU-E colonies,BFU-E cells; [7],336 (±27) colonies per 1000 plated cells
same,CFU-E colonies,"BFU-E cells; CD71 10% low cells, 100 nM Dex",66 (±28) colonies per 1000 plated cells
same,CFU-G/M/Meg colonies,"BFU-E cells; CD71 10% low cells, 100 nM Dex",20 (±21) colonies per 1000 plated cells
same,GEMM colonies,"BFU-E cells; CD71 10% low cells, 100 nM Dex",0 colonies per 1000 plated cells
same,large BFU-E colonies,"BFU-E cells; CD71 10% low cells, 100 nM Dex",222 (±84) colonies per 1000 plated cells
same,small BFU-E colonies,"BFU-E cells; CD71 10% low cells, 100 nM Dex",289 (±85) colonies per 1000 plated cells
same,CFU-E colonies,BFU-E cells; [8],33 (±10) colonies per 1000 plated cells
same,CFU-G/M/Meg colonies,BFU-E cells; [8],7 (±2) colonies per 1000 plated cells
same,GEMM colonies,BFU-E cells; [8],0 colonies per 1000 plated cells
same,large BFU-E colonies,BFU-E cells; [8],412 (±23) colonies per 1000 plated cells
same,small BFU-E colonies,BFU-E cells; [8],251 (±40) colonies per 1000 plated cells
same,Cells forming CFU-E colonies,BFU-E cells; [9],6.6%
same,Cells forming CFU-G/M/Meg colonies,BFU-E cells; [9],2.0%
same,Cells forming early BFU-Es,BFU-E cells; [9],22%
same,Cells forming late BFU-E colonies,BFU-E cells; [9],29%
